Measurements published in patent US10577378B2, “EIF4A-inhibiting compounds and methods related thereto” (eFFECTOR Therapeutics, Inc., priority 2015, dated 2020).
Like-named read-outs stand apart in the source and are kept apart here.

Tested on: MDA-MB-231 human breast cancer cells
Assay: Cell proliferation assay (CellTiter-Glo, 72 hours treatment)
Type: cell-based
Conditions: read-out: MDA-MB-231 cell proliferation assay (IC50)
Method in brief: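 MDA-MB-231 cells seeded at 2,500 cells/well, treated next day with compound or DMSO vehicle for 72 h at 37 °C. Proliferation read by CellTiter-Glo; IC50 from sigmoidal non-linear regression, binned as +++ (<100 nM), ++ (100–1000 nM), + (>1000 nM).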

[1] = Homo sapiens, MDA-MB-231 cells, 72 hours at 37° C., CellTiter-Glo

Row | Structure (SMILES) | IC50 [1] [µM] | further results
1 | COc1nc(C#N)cc2c1[C@]1(O)[C@H](O)[C@H](CN3CCN(C)CC3)[C@@H](c3ccccc3)[C@]1(c1ccc(C#N)cc1)O2 (racemic) [198Fb, Rac-(5aR,6S,7S,8R,8aS)-5a-(4-cyanophenyl)-8,8a-dihydroxy-1-methoxy-7-((4-methylpiperazin-1-yl)methyl)-6-phenyl-5a,7,8,8a-tetrahydro-6H-cyclopenta[4,5]furo[3,2-c]pyridine-3-carbonitrile] | < 0.1 | –
2 | COc1cncc2c1[C@]1(O)[C@H](O)[C@H](C(=O)N3CC4CC(C3)O4)[C@@H](c3ccccc3)[C@]1(c1ccc(Br)cc1)O2 (racemic) [273F, Rac-(6-oxa-3-azabicyclo[3.1.1]heptan-3-yl)((4bS,5R,6R,7S,7aR)-7a-(4-bromophenyl)-4b,5-dihydroxy-4-methoxy-7-phenyl-4b,6,7,7a-tetrahydro-5H-cyclopenta[4,5]furo[2,3-c]pyridin-6-yl)methanone] | < 0.1 | –
3 | COc1nc(Cl)cc2c1[C@]1(O)[C@H](O)[C@H](CN)[C@@H](c3ccccc3)[C@]1(c1ccc(Br)cc1)O2 (racemic) [292F, Rac-(5aR,6S,7S,8R,8aS)-7-(aminomethyl)-5a-(4-bromophenyl)-3-chloro-1-methoxy-6-phenyl-5a,6,7,8-tetrahydro-8aH-cyclopenta[4,5]furo[3,2-c]pyridine-8,8a-diol] | < 0.1 | –
4 | COC(=O)[C@@H]1[C@@H](c2ccccc2)[C@]2(c3ccc(C#N)cc3)Oc3cc(Cl)cnc3[C@]2(O)[C@H]1C#N (racemic) [50F, Rac-methyl (5aR,6S,7R,8R,8aR)-3-chloro-8-cyano-5a-(4-cyanophenyl)-8a-hydroxy-6-phenyl-5a,7,8,8a-tetrahydro-6H-cyclopenta[4,5]furo[3,2-b]pyridine-7-carboxylate] | 0.1 to 1 | –
5 | O[C@]12c3ncc(Cl)cc3O[C@@]1(c1ccc(Br)cc1)[C@H](c1ccccc1)C[C@@]21CCO1 (racemic) [38F, Rac-(5aR,6S,8R,8aS)-5a-(4-bromophenyl)-3-chloro-6-phenyl-6,7-dihydrospiro[cyclopenta[4,5]furo[3,2-b]pyridine-8,2′-oxetan]-8a(5aH)-ol] | > 1 | –
6 | COc1nc(C#N)cc2c1[C@]1(O)[C@H](O)[C@H](CN3CCC34CC4(F)F)[C@@H](c3ccccc3)[C@]1(c1ccc(C#N)cc1)O2 (mixture of isomers) [221F, Rac-(5aR,6S,7S,8R,8aS)-5a-(4-cyanophenyl)-7-((1,1-difluoro-4-azaspiro[2.3]hexan-4-yl)methyl)-8,8a-dihydroxy-1-methoxy-6-phenyl-5a,7,8,8a-tetrahydro-6H-cyclopenta[4,5]furo[3,2-c]pyridine-3-carbonitrile] | < 0.1 | –
7 | COc1cncc2c1[C@]1(O)[C@H](O)[C@H](CN(C)C3COC3)[C@@H](c3ccccc3)[C@]1(c1ccc(C#N)cc1)O2 (racemic) [238F, Rac-4-((4bS,5R,6S,7S,7aR)-4b,5-dihydroxy-4-methoxy-6-((methyl(oxetan-3-yl)amino)methyl)-7-phenyl-4b,5,6,7-tetrahydro-7aH-cyclopenta[4,5]furo[2,3-c]pyridin-7a-yl)benzonitrile] | 0.1 to 1 | –
8 | COc1cncc2c1[C@]1(O)[C@@H](CO)C[C@@H](c3ccccc3)[C@]1(c1ccc(C#N)cc1)O2 (single isomer, unassigned) [120F] | < 0.1 | –
9 | COc1cncc2c1[C@]1(O)[C@H](O)[C@H](CN3CCNCC3)[C@@H](c3ccccc3)[C@]1(c1ccc(C#N)cc1)O2 (single isomer, unassigned) [67F] | 0.1 to 1 | –
10 | COc1cncc2c1[C@]1(O)[C@@H](CNCc3ccnn3C)[C@H](CO)[C@@H](c3ccccc3)[C@]1(c1ccc(C#N)cc1)O2 (racemic) [204F, Rac-4-((4bR,5R,6R,7S,7aR)-4b-hydroxy-6-(hydroxymethyl)-4-methoxy-5-((((1-methyl-1H-pyrazol-5-yl)methyl)amino)methyl)-7-phenyl-4b,5,6,7-tetrahydro-7aH-cyclopenta[4,5]furo[2,3-c]pyridin-7a-yl)benzonitrile] | < 0.1 | –
11 | COc1nc(C#N)cc2c1[C@]1(O)[C@@H](CN3CCC(F)(F)CC3)[C@H](CO)[C@@H](c3ccccc3)[C@]1(c1ccc(C#N)cc1)O2 (racemic) [213F, Rac-(5aR,6S,7R,8R,8aR)-5a-(4-cyanophenyl)-8-((4,4-difluoropiperidin-1-yl)methyl)-8a-hydroxy-7-(hydroxymethyl)-1-methoxy-6-phenyl-5a,7,8,8a-tetrahydro-6H-cyclopenta[4,5]furo[3,2-c]pyridine-3-carbonitrile] | < 0.1 | –
12 | CN(C)C(=O)[C@H]1[C@@H](O)[C@@]2(O)c3ncc(Cl)cc3O[C@@]2(c2ccc(F)cc2)[C@@H]1c1ccccc1 (single isomer, unassigned) [10F] | > 1 | –
13 | CN(C)C(=O)[C@H]1[C@@H](O)[C@@]2(O)c3ncc(C#N)cc3O[C@@]2(c2ccc(C#N)cc2)[C@@H]1c1ccccc1 (single isomer, unassigned) [2F] | 0.1 to 1 | –
14 | COc1cncc2c1[C@]1(O)[C@H](O)[C@H](CN)[C@@H](c3ccccc3)[C@]1(c1ccc(C#N)cc1)O2 (racemic) [65F, Rac-4-((4bS,5R,6S,7S,7aR)-6-(aminomethyl)-4b,5-dihydroxy-4-methoxy-7-phenyl-5,6,7,7a-tetrahydro-4bH-cyclopenta[4,5]furo[2,3-c]pyridin-7a-yl)benzonitrile] | 0.1 to 1 | –
15 | COc1nc(C#N)cc2c1[C@]1(O)[C@H](O)[C@H](CN(C)C)[C@@H](c3ccccc3)[C@]1(c1ccc(C(F)(F)F)cc1)O2 (single isomer, unassigned) [147F] | < 0.1 | –
16 | N#Cc1ccc([C@@]23Oc4cc(Cl)cnc4[C@]2(O)[C@H](O)[C@@H](CN2CCCC2)[C@H]3c2ccccc2)cc1 (racemic) [41Fa, Rac-4-((5aR,6S,7R,8R,8aS)-3-chloro-8,8a-dihydroxy-6-phenyl-7-(pyrrolidin-1-ylmethyl)-6,7,8,8a-tetrahydro-5aH-cyclopenta[4,5]furo[3,2-b]pyridin-5a-yl)benzonitrile] | > 1 | –
17 | COc1cncc2c1[C@]1(O)[C@H](O)[C@H](CN(C)C)[C@@H](c3ccccc3)[C@]1(c1ccc(C#N)cc1)O2 (single isomer, unassigned) [103F] | – | IC50 (MDA-MB-231 cells, 72 hours at 37° C., CellTiter-Glo): < 0.1 µM
18 | O=S(=O)(c1ccccn1)[C@H]1[C@@H](O)[C@@]2(O)c3ncc(Cl)cc3O[C@@]2(c2ccc(Br)cc2)[C@@H]1c1ccccc1 (racemic) [163F, rac-(5aR,6S,7R,8S,8aS)-5a-(4-bromophenyl)-3-chloro-6-phenyl-7-(pyridin-2-ylsulfonyl)-5a,6,7,8-tetrahydro-8aH-cyclopenta[4,5]furo[3,2-b]pyridine-8,8a-diol] | 0.1 to 1 | –
19 | COc1cncc2c1[C@]1(O)[C@@H](CN)C[C@@H](c3ccccc3)[C@]1(c1ccc(Br)cc1)O2 (racemic) [172F, Rac-(4bR,5R,7S,7aR)-5-(aminomethyl)-7a-(4-bromophenyl)-4-methoxy-7-phenyl-5,6,7,7a-tetrahydro-4bH-cyclopenta[4,5]furo[2,3-c]pyridin-4b-ol] | – | IC50 (Homo sapiens, MDA-MB-231, 72 h): < 0.1 µM
20 | COc1cncc2c1[C@]1(O)[C@@H](CNCC(F)F)[C@H](CO)[C@@H](c3ccccc3)[C@]1(c1ccc(C#N)cc1)O2 (racemic) [182F, Rac-4-((4bR,5R,6R,7S,7aR)-5-(((2,2-difluoroethyl)amino)methyl)-4b-hydroxy-6-(hydroxyl-methyl)-4-methoxy-7-phenyl-4b,5,6,7-tetrahydro-7aH-cyclopenta[4,5]furo[2,3-c]pyridin-7a-yl)benzonitrile] | < 0.1 | –
21 | COc1cncc2c1[C@]1(O)[C@@H]3OC(=O)N[C@@H]3[C@@H](c3ccccc3)[C@]1(c1ccc(C#N)cc1)O2 (single isomer, unassigned) [81F] | < 0.1 | –
22 | COCCNC(=O)[C@H]1[C@@H](O)[C@@]2(O)c3c(OC)cncc3O[C@@]2(c2ccc(Br)cc2)[C@@H]1c1ccccc1 (racemic) [262F, Rac-(4bS,5R,6R,7S,7aR)-7a-(4-bromophenyl)-4b,5-dihydroxy-4-methoxy-N-(2-methoxyethyl)-7-phenyl-4b,6,7,7a-tetrahydro-5H-cyclopenta[4,5]furo[2,3-c]pyridine-6-carboxamide] | < 0.1 | –
23 | COc1ccc([C@@]23Oc4cc(OC)ccc4[C@]2(N=[N+]=[N-])[C@H](O)[C@H](C(=O)N(C)C)[C@H]3c2ccccc2)cc1 (racemic) [42F, Rac-(1R,2R,3S,3aR,8bS)-8b-azido-1-hydroxy-6-methoxy-3a-(4-methoxyphenyl)-N,N-dimethyl-3-phenyl-2,3-dihydro-1H-cyclopenta[b]benzofuran-2-carboxamide] | 0.1 to 1 | –
24 | COc1nc(C#N)cc2c1[C@]1(O)[C@H](O)[C@H](CN3CCC(F)CC3)[C@@H](c3ccccc3)[C@]1(c1ccc(Br)cc1)O2 (racemic) [156Fa, Rac-(5aR,6S,7S,8R,8aS)-5a-(4-bromophenyl)-7-((4-fluoropiperidin-1-yl)methyl)-8,8a-dihydroxy-1-methoxy-6-phenyl-5a,7,8,8a-tetrahydro-6H-cyclopenta[4,5]furo[3,2-c]pyridine-3-carbonitrile] | < 0.1 | –
25 | COc1cncc2c1[C@]1(O)[C@H](O)[C@H](CN3CCOCC3)[C@@H](c3ccccc3)[C@]1(c1ccc(C(F)(F)F)cc1)O2 (single isomer, unassigned) [282F] | 0.1 to 1 | –
26 | COc1cncc2c1[C@]1(O)[C@H](O)[C@H](CN3CCC3)[C@@H](c3ccccc3)[C@]1(c1ccc(C#N)cc1)O2 (racemic) [71F, Rac-4-((4bS,5R,6S,7S,7aR)-6-(azetidin-1-ylmethyl)-4b,5-dihydroxy-4-methoxy-7-phenyl-4b,5,6,7-tetrahydro-7aH-cyclopenta[4,5]furo[2,3-c]pyridin-7a-yl)benzonitrile] | < 0.1 | –
27 | CCN(CC)C[C@H]1[C@@H](O)[C@@]2(O)c3c(OC)cncc3O[C@@]2(c2ccc(C#N)cc2)[C@@H]1c1ccccc1 (single isomer, unassigned) [73F] | < 0.1 | –
